Results published in patent US12390472B2 (SUZHOU SINOVENT PHARMACEUTICALS CO., LTD., priority 2018, dated 2025).

Tests used:
Pfeiffer = test: Methylated lysine of histone-H3 (H3K27Me3) detection by ELISA, Pfeiffer cells; format: cell-based, human; settings: Homo sapiens, 168 h, 7 days treatment, H3K27Me3 normalized to total histone-3, read-out: IC50 of cell methylation, Pfeiffer
Protocol: (§1) The operations for adherent cells and suspension cells cultured in 96-well plates were slightly different after they had been treated with compound (4-fold dilution 20 uM-0.009 nM, 3 duplicate wells) for 7 days, and the operations are summarized as follows: For adherent cells, after discarding the medium, 75 uL of 1-fold hypotonic lysis buffer (10 mM Tris-HCl, pH 7.5, containing halt protease inhibitor and PMSF with a final concentration of 1 mM) was added; the plate was frozen at −80° C. for at least 1 h or overnight; once the plate was taken away from the −80° C. environment, 120 uL (to a final volume of about 195 uL) of 1-fold hypotonic lysis buffer (containing protease inhibitor) was added, and the plate was thawed at room temperature and shaken for 2 min for mixing; and 8 uL (to a final volume of about 203 uL) of 2.5 M NaCl was added to each well to a final NaCl concentration of 100 mM and then the plate was shaken for an additional 2 min for mixing.
(§2) For suspension cells (final volume of medium was 100 uL/well), 25 uL of 5-fold hypotonic lysis buffer (50 mM Tris-HCl, pH 7.5, containing halt protease inhibitor and PMSF with a final concentration of 1 mM) was added, and the plate was frozen at −80° C. for at least 1 h or overnight. Once the plate was taken away from the −80° C. environment, 20 uL of 0.625 M NaCl was added to each well to a final NaCl concentration of about 100 mM, and the mixture was mixed well.
(§3) 75 uL or 100 uL of sample (with duplicate wells provided) was added to two 96-well ELISA plates (ThermoFisher Scientific; Immulon 4HBX 3885) and the plates were coated with total protein lysate and incubated overnight at 4° C. 50 uL of lysate was retained for protein quantitation if necessary. The sealing of the plates must be ensured. The plates were washed twice with 300 uL of 1×PBST (PBS containing 0.05% Tween 20) per well. Each well was blocked with 300 uL of dilution (PBS+2% BSA+0.05% Tween 20), incubated for 2 h at room temperature, and washed twice with 1×PBST. Primary antibodies were diluted with a dilution solution containing 1% BSA+0.05% Tween 20. 75-100 uL of anti-H3K27Me3 antibody (CST; 9733; 50% glycerol stock, 1:1,000) or anti-total histone-3 antibody (Abcam; ab1791; 50% glycerol stock, 1:10,000) was added to each well. The plates were incubated for 90 min at room temperature or incubated overnight at 4° C. The plates were washed three times with 1×PBST. 75-100 uL of anti-Rb-IgG-HRP secondary antibody (Cell Signaling Technology; 7074) was added per well, 1:2000 diluted secondary antibody for anti-H3K 27Me3 plate and 1:6000 diluted secondary antibody for anti-histone total histone-3 plate. The plates were incubated at room temperature for 90 min. The plate assayed with anti-histone-3 antibody was used to normalize the data for the corresponding plate assayed with anti-H3K 27me3. The plates must be washed at least three times with 1×PBST after primary or secondary antibody incubation. The plates were assayed by adding 75-100 uL of 3,3′,5,5′-tetramethylbenzidine substrate (CST or ThermoFisher Scientific; TMBS) per well and incubated away from light for 30 min at 37° C. The reaction was terminated by adding 100 uL of 0.5 M H2SO4 per well. The absorbance was read at 450 nm. Curve fitting was performed using Graph Pad program.

EZH2 enzyme complex = EZH2 enzyme complex (Homo sapiens (Human), UniProt Q15910); test: Test on EZH2 inhibitory activity (TR-FRET); format: biochemical; settings: EZH2 enzyme complex 25 ng/uL, histone H3 peptide 4 uM, SAM 2 uM, 300 min; read-out: IC50 of EZH2 inhibition
Protocol: • EZH2 enzyme complex: 25 ng/uL • Histone H3 peptide substrate: 4 uM • SAM: 2 uM • Reaction time: 300 min Procedures • 1. Each compound disclosed herein was diluted with 1×HMT buffer and transferred to a 384-well assay plate at 3 uL per well; • 2. The EZH2 enzyme solution was prepared with 1×HMT buffer and transferred to the 384-well assay plate at 2 uL per well; • 3. The above assay plate was incubated for 30 min; • 4. A mixture solution of SAM and histone H3 peptide substrate at 2-fold concentration was prepared with 4×HMT buffer; • 5. 5 uL of the mixture solution of SAM and substrate was added to each well of the assay plate to react at room temperature, and the assay plate was sealed with plastic; • 6. After incubation for 5 h, 10 uL of TR-FRET detection buffer containing Tb-labeled antibody and dye-labeled receptor was added to each well of the assay plate; • 7. After incubation for 1 h at room temperature, the assay plate was detected; • 8.

WSU-DLCL2 = test: Methylated lysine of histone-H3 (H3K27Me3) detection by ELISA, WSU-DLCL2 cells; format: cell-based; settings: Homo sapiens, WSUDLCL2, 168 h; WSU-DLCL2, 7 days treatment, H3K27Me3 normalized to total histone-3; read-out: IC50 of cell methylation, WSU-DLCL2
Protocol: as §1, §2, §3

Sequence of EZH2 enzyme complex (Q15910 whole entry): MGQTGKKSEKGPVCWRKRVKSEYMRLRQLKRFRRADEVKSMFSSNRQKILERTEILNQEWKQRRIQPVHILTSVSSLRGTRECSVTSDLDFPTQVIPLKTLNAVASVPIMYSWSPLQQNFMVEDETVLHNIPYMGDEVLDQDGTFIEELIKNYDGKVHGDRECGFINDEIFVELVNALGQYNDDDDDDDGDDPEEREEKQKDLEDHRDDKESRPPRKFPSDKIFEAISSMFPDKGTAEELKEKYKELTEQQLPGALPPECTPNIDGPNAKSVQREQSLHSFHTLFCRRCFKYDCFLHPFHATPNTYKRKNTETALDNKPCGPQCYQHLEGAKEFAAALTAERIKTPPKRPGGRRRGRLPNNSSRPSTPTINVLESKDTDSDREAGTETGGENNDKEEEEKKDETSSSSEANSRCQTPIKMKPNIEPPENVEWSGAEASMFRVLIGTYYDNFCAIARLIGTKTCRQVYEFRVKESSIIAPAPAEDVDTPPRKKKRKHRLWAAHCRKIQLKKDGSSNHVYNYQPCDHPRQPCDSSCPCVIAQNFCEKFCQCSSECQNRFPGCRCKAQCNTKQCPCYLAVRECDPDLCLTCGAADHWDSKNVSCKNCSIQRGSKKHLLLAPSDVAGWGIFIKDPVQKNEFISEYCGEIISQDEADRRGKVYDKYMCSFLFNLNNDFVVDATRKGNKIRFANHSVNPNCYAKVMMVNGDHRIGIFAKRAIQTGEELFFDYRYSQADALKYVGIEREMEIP
Sequence of EZH2 enzyme complex (O75530 whole entry partner): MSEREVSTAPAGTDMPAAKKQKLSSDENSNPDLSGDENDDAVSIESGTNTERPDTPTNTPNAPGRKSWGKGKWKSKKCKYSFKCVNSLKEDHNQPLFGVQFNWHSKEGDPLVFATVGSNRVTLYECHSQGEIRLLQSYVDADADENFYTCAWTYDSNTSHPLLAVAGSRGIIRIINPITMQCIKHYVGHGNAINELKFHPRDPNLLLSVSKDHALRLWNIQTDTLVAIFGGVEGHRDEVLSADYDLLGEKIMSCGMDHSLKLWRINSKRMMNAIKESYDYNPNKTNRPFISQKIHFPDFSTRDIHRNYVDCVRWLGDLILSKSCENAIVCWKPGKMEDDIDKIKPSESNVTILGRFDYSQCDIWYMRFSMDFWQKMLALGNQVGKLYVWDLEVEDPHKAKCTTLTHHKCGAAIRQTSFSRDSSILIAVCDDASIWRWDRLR
Sequence of EZH2 enzyme complex (Q15022 whole entry partner): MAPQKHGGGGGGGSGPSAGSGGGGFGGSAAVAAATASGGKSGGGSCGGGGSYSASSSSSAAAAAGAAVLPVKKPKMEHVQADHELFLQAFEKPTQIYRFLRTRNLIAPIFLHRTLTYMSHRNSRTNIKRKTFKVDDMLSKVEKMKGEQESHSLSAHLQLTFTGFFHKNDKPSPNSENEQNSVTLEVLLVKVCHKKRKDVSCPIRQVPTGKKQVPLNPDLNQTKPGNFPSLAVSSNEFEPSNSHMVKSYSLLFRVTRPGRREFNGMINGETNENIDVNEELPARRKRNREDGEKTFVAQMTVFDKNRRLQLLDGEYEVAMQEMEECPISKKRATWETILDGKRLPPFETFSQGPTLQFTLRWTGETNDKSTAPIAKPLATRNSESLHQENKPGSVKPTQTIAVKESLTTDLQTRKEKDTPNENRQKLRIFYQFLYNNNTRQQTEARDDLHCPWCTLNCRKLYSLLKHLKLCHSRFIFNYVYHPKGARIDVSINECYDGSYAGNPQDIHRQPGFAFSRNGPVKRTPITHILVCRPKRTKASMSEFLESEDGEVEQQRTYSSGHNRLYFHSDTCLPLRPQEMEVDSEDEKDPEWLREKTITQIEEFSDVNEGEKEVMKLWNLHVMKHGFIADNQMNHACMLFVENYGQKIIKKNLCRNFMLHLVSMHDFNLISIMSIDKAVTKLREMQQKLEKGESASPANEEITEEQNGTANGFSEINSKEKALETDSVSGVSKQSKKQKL

Structure (SMILES) | IC50 (Pfeiffer) [nM] | IC50 (EZH2 enzyme complex) [nM] | IC50 (WSU-DLCL2) [nM]
Cc1cc(C)c(CNC(=O)c2cc(O[C@H]3C[C@H](N4C[C@@H](C)O[C@@H](C)C4)C3)cc(NC3CCOCC3)c2C)c(=O)[nH]1 [Example 57, N-((4,6-dimethyl-2-oxo-1,2-dihydropyridin-3-yl)methyl)-5-(trans-3-(cis-2,6-dimethylmorpholino)cyclobutoxy)-2-methyl-3-((tetrahydro-2H-pyran-4-yl)amino)benzamide] | > 1000 | > 1000 | > 1000
CCN(c1cc(OC2CC(C)(C)C2)cc(C(=O)NCc2c(C)cc(C)[nH]c2=O)c1C)C1CCOCC1 [Example 12, N-((4,6-dimethyl-2-oxo-1,2-dihydropyridin-3-yl)methyl)-5-(3,3-dimethylcyclobutoxy)-3-(ethyl(tetrahydro-2H-pyran-4-yl)amino)-2-methylbenzamide] | 50 to 500 | 10 to 100 | > 1000
CCN(c1cc(O[C@H]2C[C@@H](N3CCC(C)CC3)C2)cc(C(=O)NCc2c(C)cc(C)[nH]c2=O)c1C)C1CCOCC1 [Example 56, N-((4,6-dimethyl-2-oxo-1,2-dihydropyridin-3-yl)methyl)-3-(ethyl(tetrahydro-2H-pyran-4-yl)amino)-2-methyl-5-(cis-3-(4-methylpiperidin-1-yl)cyclobutoxy)benzamide] | 50 to 500 | 10 to 100 | 50 to 500
CCN(c1cc(C2CC2CN2C[C@@H](C)O[C@@H](C)C2)cc(C(=O)NCc2c(C)cc(C)[nH]c2=O)c1C)C1CCOCC1 (stereo partly drawn) [Example 75, N-((4,6-dimethyl-2-oxo-1,2-dihydropyridin-3-yl)methyl)-5-(2-((cis-2,6-dimethylmorpholinyl)methyl)cyclopropyl)-3-(ethyl(tetrahydro-2H-pyran-4-yl)amino)-2-methylbenzamide] | < 50 | 10 to 100 | > 1000
CCN(c1cc(O[C@H]2C[C@H](N3C[C@@H](C)O[C@@H](C)C3)C2)cc(C(=O)NCc2c(C)cc(C)[nH]c2=O)c1C)[C@H]1CC[C@H](N(C)CCOC)CC1 [Example 52, N-((4,6-dimethyl-2-oxo-1,2-dihydropyridin-3-yl)methyl)-5-(trans-3-(cis-2,6-dimethylmorpholinyl)cyclobutoxy)-3-(ethyl(trans-4-((2-methoxyethyl)(methyl)amino)cyclohexyl)amino)-2-methylbenzamide] | – | 10 to 100 | 500 to 1000
CCN(c1cc(C2CC2CN2CCN(CC(C)(C)C)CC2)cc(C(=O)NCc2c(C)cc(C)[nH]c2=O)c1C)C1CCOCC1 (stereo not shown) [Example 76, N-((4,6-dimethyl-2-oxo-1,2-dihydropyridin-3-yl)methyl)-3-(ethyl(tetrahydro-2H-pyran-4-yl)amino)-2-methyl-5-(2-((4-neopentylpiperazin-1-yl)methyl)cyclopropyl)benzamide] | < 50 | 10 to 100 | 50 to 500
CCN(c1cc(C2CC2CN2CCNCC2)cc(C(=O)NCc2c(C)cc(C)[nH]c2=O)c1C)C1CCOCC1 (stereo not shown) [Example 73, N-((4,6-dimethyl-2-oxo-1,2-dihydropyridin-3-yl)methyl)-3-(ethyl(tetrahydro-2H-pyran-4-yl)amino)-2-methyl-5-(2-(piperazin-1-ylmethyl)cyclopropyl)benzamide] | 50 to 500 | 10 to 100 | 50 to 500
CCN(c1cc(O[C@H]2C[C@H](N3CCN(S(C)(=O)=O)CC3)C2)cc(C(=O)NCc2c(C)cc(C)[nH]c2=O)c1C)C1CCOCC1 [Example 28, N-((4,6-dimethyl-2-oxo-1,2-dihydropyridin-3-yl)methyl)-3-(ethyl(tetrahydro-2H-pyran-4-yl)amino)-2-methyl-5-(trans-3-(4-(methylsulfonyl)piperazin-1-yl)cyclobutoxy)benzamide] | < 50 | 10 to 100 | < 50
CCN(c1cc(C2CC2CN2CCOCC2)cc(C(=O)NCc2c(C)cc(C)[nH]c2=O)c1C)[C@H]1CC[C@H](N(C)CCOC)CC1 (stereo partly drawn) [Example 82, N-((4,6-dimethyl-2-oxo-1,2-dihydropyridin-3-yl)methyl)-3-(ethyl(trans-4-((2-methoxyethyl)(methyl)amino)cyclohexyl)amino)-2-methyl-5-(2-(morpholinylmethyl)cyclopropyl)benzamide] | – | 10 to 100 | 50 to 500
CCN(c1cc(O[C@H]2C[C@@H](N3C[C@@H](C)O[C@@H](C)C3)C2)cc(C(=O)NCc2c(C)cc(C)[nH]c2=O)c1C)[C@@H]1C[C@@H](C)O[C@@H](C)C1 [Example 38, N-((4,6-dimethyl-2-oxo-1,2-dihydropyridin-3-yl)methyl)-5-((1S,3S)-3-((2S,6R)-2,6-dimethylmorpholinyl)cyclobutoxy)-3-(((2R,4s,6S)-2,6-dimethyltetrahydro-2H-pyran-4-yl)(ethyl)amino)-2-methylbenzamide] | 500 to 1000 | 100 to 1000 | > 1000
CCN(c1cc(O[C@H]2C[C@@H](N3CCN(C)CC3)C2)cc(C(=O)NCc2c(C)cc(C)[nH]c2=O)c1C)C1CCOCC1 [Example 19, N-((4,6-dimethyl-2-oxo-1,2-dihydropyridin-3-yl)methyl)-3-(ethyl(tetrahydro-2H-pyran-4-yl)amino)-2-methyl-5-(cis-3-(4-methylpiperazin-1-yl)cyclobutoxy)benzamide] | < 50 | 10 to 100 | 50 to 500
CCN(c1cc(C2CC2CN2C[C@@H](C)O[C@@H](C)C2)cc(C(=O)NCc2c(C)cc(C)[nH]c2=O)c1Cl)C1CCOCC1 (stereo partly drawn) [Example 85, 2-chloro-N-((4,6-dimethyl-2-oxo-1,2-dihydropyridin-3-yl)methyl)-5-(2-(((2S,6R)-2,6-dimethylmorpholinyl)methyl)cyclopropyl)-3-(ethyl(tetrahydro-2H-pyran-4-yl)amino)benzamide] | – | 100 to 1000 | 500 to 1000
CCN(c1cc(C2CC2CN2CCN(C(=O)OC)CC2)cc(C(=O)NCc2c(C)cc(C)[nH]c2=O)c1C)C1CCOCC1 (stereo not shown) [Example 80, methyl 4-((2-(3-(((4,6-dimethyl-2-oxo-1,2-dihydropyridin-3-yl)methyl)carbamoyl)-5-(ethyl(tetrahydro-2H-pyran-4-yl)amino)-4-methylphenyl)cyclopropyl)methyl)piperazine-1-carboxylate] | – | 10 to 100 | < 50
CCN(c1cc(C2CC2)cc(C(=O)NCc2c(C)cc(C)[nH]c2=O)c1C)C1CCOCC1 [Example 14, 5-cyclopropyl-N-((4,6-dimethyl-2-oxo-1,2-dihydropyridin-3-yl)methyl)-3-(ethyl(tetrahydro-2H-pyran-4-yl)amino)-2-methylbenzamide] | < 50 | – | 50 to 500
CCN(c1cc(C2CC2CN2CCNCC2)cc(C(=O)NCc2c(C)cc(C)[nH]c2=O)c1Cl)C1CCOCC1 (stereo not shown) [Example 83, 2-chloro-N-((4,6-dimethyl-2-oxo-1,2-dihydropyridin-3-yl)methyl)-3-(ethyl(tetrahydro-2H-pyran-4-yl)amino)-5-(2-(piperazin-1-ylmethyl)cyclopropyl)benzamide] | – | 10 to 100 | > 1000
CCN(c1cc(O[C@H]2C[C@@H](N3C[C@@H](C)O[C@@H](C)C3)C2)cc(C(=O)NCc2c(C)cc(C)[nH]c2=O)c1C)[C@H]1C[C@@H](C)O[C@@H](C)C1 [Example 33] | 50 to 500 | 100 to 1000 | –
CCN(c1cc(O[C@H]2C[C@H](N3CC4CC(C3)O4)C2)cc(C(=O)NCc2c(C)cc(C)[nH]c2=O)c1Cl)C1CCOCC1 [Example 55] | – | 10 to 100 | 50 to 500
